Like-named read-outs stand apart in the source and are kept apart here.
Key:
[1] = molecular target: T1, GST-hERβ (ligand binding domain) (Homo sapiens, UniProt Q92731); test: SPA competition binding assay, ERβ; conditions: for Avg. ER β pKi: SPA competition binding vs 1 nM [3H]estradiol, apparent Ki, n = 2
T1 construct: made in house; host or cells: E. coli BL21 (DE3)pLYS S
Procedure: The ligand binding domain of both ERα and ERβ were sub-cloned into pGEX-2T vector which had been modified to contain KpnI and BamHI restriction sites in the multiple cloning region. GST-hERα and GST-hERβ proteins were made by transforming BL21 (DE3)pLYS S competent cells with the appropriate expression plasmid. […] The cells were collected by centrifugation and resuspended in lysis buffer (50 mM Tris pH 7.9; 250 mM KCl; 1% Triton X-100; 10 mM DTT; 1 mM PMSF). […] The supernatant was retained and glycerol was added to a final concentration of 10%. The protein content of the supernatant was quantitated using the BioRad Protein Assay Reagent. The protein was then stored at −80° C. until used in the binding assay.
(§1) Polylysine coated Yttrium Silicate SPA beads (Amersham #RPNQ 0010) are resuspended in assay buffer [10 mM potassium phosphate buffer pH 7.0 containing 2 mM EDTA, 50 mM NaCl, 1 mM DTT, 2 mM CHAPS, 10% glycerol] to a concentration of 1 g/60 ml. […] [2,4,6,7,16,17-3H(N)]-Estradiol is added as a 30 ul aliquot to give a final assay concentration of 1 nM. […] The plates are shaken vigorously for two hours then counted on a Packard TopCount using the protocol for counting tritium yttrium silicate SPA beads. Data analysis was done by standard methods. % Bound was calculated for each concentration of each test compound using the equation % Bound=100*((Test−NS)/(T−NS)). % Bound was plotted vs concentration and curve fitting was accomplished using non-linear regression.

[2] = molecular target: T2, GST-hERα (ligand binding domain) (Homo sapiens, UniProt P03372); test: SPA competition binding assay, ERα; conditions: for Ki: read-out: Avg. ER α pKi (converted); for Avg. ER α pKi: SPA competition binding vs 1 nM [3H]estradiol, apparent Ki, n = 2
T2 construct: made in house; host or cells: E. coli BL21 (DE3)pLYS S
T2 sequence (P03372 311-547 limits assumed): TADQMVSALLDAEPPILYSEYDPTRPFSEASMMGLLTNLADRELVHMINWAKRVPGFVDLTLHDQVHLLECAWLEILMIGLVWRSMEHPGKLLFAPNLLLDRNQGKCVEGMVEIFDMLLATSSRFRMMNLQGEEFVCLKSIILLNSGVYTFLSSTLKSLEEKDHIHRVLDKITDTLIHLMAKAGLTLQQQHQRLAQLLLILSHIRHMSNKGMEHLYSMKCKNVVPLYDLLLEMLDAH
Procedure: The ligand binding domain of both ERα and ERβ were sub-cloned into pGEX-2T vector which had been modified to contain KpnI and BamHI restriction sites in the multiple cloning region. GST-hERα and GST-hERβ proteins were made by transforming BL21 (DE3)pLYS S competent cells with the appropriate expression plasmid. […] The cells were collected by centrifugation and resuspended in lysis buffer (50 mM Tris pH 7.9; 250 mM KCl; 1% Triton X-100; 10 mM DTT; 1 mM PMSF). The lysate was then placed on dry ice until completely frozen The frozen lysate was thawed and centrifuged 20 min at 4° C. at 80K rpm in a TLA 100.2 rotor in a Beckman TL-100 ultracentrifuge. The supernatant was retained and glycerol was added to a final concentration of 10%. The protein content of the supernatant was quantitated using the BioRad Protein Assay Reagent. The protein was then stored at −80° C. until used in the binding assay.
as §1, with “ml. 30 ul (0.5 mg) of the SPA beads are then added to each well of a Packard OptiPlate (Packard 6005190, Packard Instruments, Meriden, Conn.).” for “ml.”

T1 sequence (Q92731 264-498 limits assumed): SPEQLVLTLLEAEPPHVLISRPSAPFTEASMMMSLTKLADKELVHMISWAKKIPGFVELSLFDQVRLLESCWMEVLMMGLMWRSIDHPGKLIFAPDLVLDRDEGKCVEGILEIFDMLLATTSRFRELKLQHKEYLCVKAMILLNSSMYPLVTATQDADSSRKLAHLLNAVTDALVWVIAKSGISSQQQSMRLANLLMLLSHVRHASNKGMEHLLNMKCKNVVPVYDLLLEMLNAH

Molecule | Ki [1] [µM] | Ki [2] [µM] | Avg. ER β pKi [1] | Avg. ER α pKi [2] | Ki ([1]; read-out: Avg. ER β pKi (converted)) [µM]
CCc1nc2cc(O)ccc2c(Oc2ccc(/C=C/C(N)=O)cc2)c1-c1ccccc1 [Example 2, 4-[(7-Hydroxy-2-ethyl-3-phenyl-4-quinolinyl)oxyphenyl]-2-propenoamide] | 0.0282 | 0.0148 | – | – | –
4-[(7-Hydroxy-2-ethyl-3-phenyl-4-quinolinyl)oxyphenyl]-2-propeno-N-piperidineamide [Example 5] | – | – | 7.64 | 7.55 | –
4-[(7-Hydroxy-2-phenyl-3-phenyl-4-quinolinyl)oxyphenyl]-2-propenoic acid [Example 9] | – | – | 6.17 | 5.53 | –
4-[(7-Hydroxy-2-ethyl-3-phenyl-4-quinolinyl)oxyphenyl]-2-propenonitrile [Example 6] | – | – | 7.50 | 7.59 | –
4-[(7-Hydroxy-2-ethyl-3-(3-trifluoromethylphenyl]-4-quinolinyl)oxyphenyl]-2-propeno-N-isopropylamide [Example 7] | – | – | 7.26 | 7.51 | –
CCc1nc2cc(O)ccc2c(Oc2cccc(/C=C/C(=O)O)c2)c1-c1ccccc1 [Example 10, 3-[(7-Hydroxy-2-ethyl-3-phenyl-4-quinolinyl)oxyphenyl]-2-propenoic acid] | – | 1.55 | – | – | –
4-[(7-Hydroxy-2-ethyl-3-phenyl-4-quinolinyl)oxyphenyl]-2-propeno-N-isopropylamide [Example 3] | – | – | 7.76 | 8.01 | –
4-[(7-Hydroxy-2-ethyl-3-phenyl-4-quinolinyl)oxyphenyl]-2-propeno-N,N-dimethylamide [Example 4] | – | – | 7.74 | 7.95 | –
4-[(7-Hydroxy-2-ethyl-3-(3-trifluoromethylphenyl)-4-quinolinyl)oxyphenyl]-2-propenoic acid [Example 8] | – | – | 6.57 | 7.05 | –
CCc1nc2cc(O)ccc2c(Sc2ccc(/C=C/C(N)=O)cc2)c1-c1ccccc1 [Example 11, 4-[(7-Hydroxy-2-ethyl-3-phenyl-4-quinolinyl)thiophenyl]-2-propenoamide] | – | 3.16 | – | – | 1.82
